# Laboratory results from US20230293482A1, “CENTRAL NERVOUS SYSTEM POTENTIATING COMPOSITION” (priority 2020, published 2023).
# Key:
# [1] = test system: C57BL/6 male mice; assay: Open field locomotor activity / wakening after single administration; format: in vivo; conditions: 25 μg/kg of body weight, open field 60 minutes; for locomotor activity: compared with control group; for wakening state: control animals repeated sleeping and wakening
# [2] = test system: healthy volunteers; assay: Astringency sensory test, solutions held in oral cavity; format: in vivo, human; conditions: for astringency felt on oral ingestion: compared with other polyphenol compounds; for concentration at which astringency is exhibited in almost all cases: gradually diluted solutions held in oral cavity, ten healthy volunteers
# Excerpt: Ten healthy volunteers held in their oral cavity, solutions obtained by gradually diluting (2R,3R)-2-(3,4-dihydroxyphenyl)-3,4-dihydro-2H-chromene-3,5,7-triol, and a dimer, a trimer or a tetramer obtained by condensing the above compound by a 4β→8 bond, 2-(3,4-dihydroxyphenyl)chromenylium-3,5,7-triol or 2-(3,4,5-trihydroxylphenyl)chromenylium-3,5,7-triol, 2-(3,4-hydroxyphenyl-3,5,7-trihydroxy-4H-1-benzopyran-4-one (quercetin), (2R,3R)-5,7-dihydroxy-2-(3,4,5-trihydroxyphenyl)-3,4-dihydro-2H-chromen-3-yl] 3,4,5-trihydroxybenzoate (EGCG), (2S)-5-hydroxy-2-(3-hydroxy-4-methoxyphenyl)-7-[(2S,3R,4S,5S,6R)-3,4,5-trihydroxy-6-[[(2R,3R,4R,5R,6S)-3,4,5- trihydroxy-6-methyloxan-2-yl]oxymethyl]oxan-2-yl]oxy -2,3-dihydrochromen-4-one (hesperidin), 7-hydroxy-3-(4-hydroxyphenyl)chromen-4-one (daidzein), and (1E,6E)-1,7-bis(4-hydroxy-3-methoxyphenyl)hepta-1,6-diene-3,5-dione (curcumin), and the concentrations at which the volunteers felt astringency were then observed.
# [3] = test system: Wistar male rats; assay: Blood flow of the cremasteric arteriole, 50% effective dose; format: in vivo; conditions: 1, 10, 100, 1000 μg/kg of body weight intragastric, 60 minutes after administration, laser Doppler
# Description: Cannula was inserted into the stomach of Wistar male rats under anesthesia, and the cremaster muscle was prepared, Not only a dimer, a trimer or a tetramer obtained by condensing (2R,3R)-2-(3,4-dihydroxyphenyl)-3,4-dihydro-2H-chromene-3,5,7-triol by a 4β→8 bond, 2-(3,4-dihydroxylphenyl)chromenylium-3,5,7-triol, or 2-(3,4,5-trihydroxyphenyl)chromenylium-3,5,7-triol, but also (2R,3R)-2-(3,4-dihydroxyphenyl)-3,4-dihydro-2H-chromene-3,5,7-triol, 2-(3,4-hydroxyphenyl-3,5,7-trihydroxy-4H-1-benzopyran-4-one (quercetin), (2R,3R)-5,7-dihydroxy-2-(3,4,5-trihydroxyphenyl)-3,4-dihydro-2H-chromen-3-yl] 3,4,5-trihydroxybenzoate (EGCG), (2S)-5-hydroxy-2-(3-hydroxy-4-methoxyphenyl)-7-[(2S,3R,4S,5S,6R)-3,4,5-trihydroxy-6-[[(2R,3R,4R,5R,6S)-3,4,5-trihydroxy-6-methylaxan-2-yl]oxymethyl]oxan-2-yl]oxy-2,3-dihydrochromen-4-one (hesperidin), 7-hydroxy-3(4-hydroxyphenyl)chromen-4-one (daidzein), (1E,6E)-1,7-bis(4-hydroxy-3-methoxyphenyl)hepta-1,6-diene-3,5-dione (curcumin), 5-[(E)-2-(4-hydroxyphenypenyl)ethenyl]-1,3-benzenediol (resveratrol), and (2R,3R)-2-(4-hydroxyphenyl)-3-(3,5-dihydroxyphenyl)-6-[(E)-4-hydroxystyryl]-2,3-dihydrobenzofuran-4-ol (Gnefin C), were administered to the rats at doses of 1, 10, 100, and 1000 μg/kg of body weight. A fluctuation in the blood flow of the cremasteric arteriole 60 minutes after the administration was measured using a laser Doppler blood-flowmeter. […] The 50% effective dose of the compound obtained by condensing (2R,3R)-2-(3,4-dihydroxyphenyl)-3,4-dihydro-2H-chromene-3,5,7-triol by a 4β→8 bond was in the range of 1 to 30 μg/kg of body weight, whereas the 50% effective dose of 2-(3,4-dihydroxyphenyl)chromenylium-3,5,7-triol or 2-(3,4,5-trihydroxylphenyl)chromenylium-3,5,7-triol was in the range of 50 to 100 μg/kg of body weight.
# [4] = test system: Wistar male rats; assay: Neovascularization, CD31 immunostaining of muscle; format: in vivo; conditions: 1 mg/kg of body weight for 14 days, compared with control group
# Description: Wistar male rats were divided into 2 groups, and thereafter, a tetramer of 2-(3,4-dihydroxyphenyl)-3-(D-glucopyranooxyl)chromenylium-3,5,7-triol (1 mg/kg of body weight) was co-administered. to the laboratory animals for 14 days, Thereafter, the animals were subjected to dissection. A frozen section was prepared from the excised extensor digitorum longus muscle or soleus muscle, and CD31 serving as a neovascularization marker was then detected by applying an immunostaining method.
# [5] = test system: Wistar male rats; assay: Blood pressure after repeated administration with/without N-acetylcysteine; format: in vivo
# Description: Wistar male rats were divided into 4 groups, and thereafter, 2-(3,4-dihydroxyphenyl)-3-(D-glucopyranooxyl)chromenylium-3,5,7-triol (1 mg/kg of body weight) and/or N-acetylcysteine (100 mg/kg of body weight) were co-administered to the laboratory animals for 14 days. Thereafter, the blood pressure of the animals was measured over time, using a non-heated type sphygmomanometer.
Compound,locomotor activity [1],wakening state [1],astringency felt on oral ingestion [2],concentration at which astringency is exhibited in almost all cases [2],fluctuation in the blood flow of the cremasteric arteriole [3],CD31 expression / neovascularization in extensor digitorum longus or soleus muscle [4],blood pressure change on co-administration with N-acetylcysteine ([5]; 1 mg/kg of body weight + N-acetylcysteine 100 mg/kg for 14 days),"blood pressure ([5]; 1 mg/kg of body weight for 14 days, Day 7 and Day 14)"
"Oc1cc(O)c2cc(O)c(-c3ccc(O)c(O)c3)[o+]c2c1 [2-(3,4-dihydroxyphenyl)chromenylium-3,5,7-triol]",significantly increased,the animals were in a wakening state,strong astringency,10 µg/mL,dose-dependent blood flow-increasing action,–,–,–
Oc1cc(O)c2c(c1)O[C@H](c1ccc(O)c(O)c1)[C@H](O)[C@H]2c1c(O)cc(O)c2c1O[C@H](c1ccc(O)c(O)c1)[C@H](O)C2 [dimer],significantly increased,the animals were in a wakening state,–,10 µg/mL,dose-dependent blood flow-increasing action,–,–,–
"Oc1cc(O)c2cc(O)c(-c3cc(O)c(O)c(O)c3)[o+]c2c1 [2-(3,4,5-trihydroxylphenyl)chromenylium-3,5,7-triol]",–,–,strong astringency,10 µg/mL,dose-dependent blood flow-increasing action,–,–,–
Oc1cc(O)c2c(c1)O[C@H](c1ccc(O)c(O)c1)[C@H](O)[C@H]2c1c(O)cc(O)c2c1O[C@H](c1ccc(O)c(O)c1)[C@H](O)[C@H]2c1c(O)cc(O)c2c1O[C@H](c1ccc(O)c(O)c1)[C@H](O)C2 [trimer],significantly increased,the animals were in a wakening state,–,10 µg/mL,dose-dependent blood flow-increasing action,–,–,–
"OC[C@H]1OC(Oc2cc3c(O)cc(O)cc3[o+]c2-c2ccc(O)c(O)c2)[C@H](O)[C@@H](O)[C@@H]1O (stereo partly drawn) [2-(3,4-dihydroxyphenyl)-3-(D-glucopyranooxyl)chromenylium-3,5,7-triol]",–,–,–,–,–,a significant expression of CD31 was observed,disappeared,significantly decreased
